Source: patent EP0584797A2, “Novel cephalosporin compounds and processes for the preparation thereof” (LUCKY LTD., priority 1992, dated 1994)
In brackets after ≈: the same amount, converted by molar mass.

What was measured:
Experiment in all cases: minimal inhibitory concentration, two-fold agar dilution
Assay type in all cases: cell-based
[1] = test system: Acinetobacter calcoaceticus ATCC 15437; settings: ATCC15437, Muller-Hinton agar, 37°C, 20 hours, read-out: MIC values against the standard strains
How it was run: (§1)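 Compounds were serially diluted two-fold into Mueller-Hinton agar, and each plate was spot-inoculated with the test strain at 10⁷ CFU per ml. Plates were incubated at 37°C for 20 hours before MIC values were read.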

[2] = test system: Pseudomonas aeruginosa ATCC 27853; settings: ATCC27853, Muller-Hinton agar, 37°C, 20 hours, read-out: MIC values against the standard strains
How it was run: as §1

[3] = test system: Escherichia coli ATCC 25922; settings: ATCC25922, Muller-Hinton agar, 37°C, 20 hours, read-out: MIC values against the standard strains
How it was run: as §1

[4] = test system: Proteus mirabilis ATCC 25933; settings: ATCC25933, Muller-Hinton agar, 37°C, 20 hours, read-out: MIC values against the standard strains
How it was run: as §1

[5] = test system: Serratia marcescens ATCC 27117; settings: ATCC27117, Muller-Hinton agar, 37°C, 20 hours, read-out: MIC values against the standard strains
How it was run: as §1

[6] = test system: Citrobacter freundii ATCC 8090; settings: ATCC8090, Muller-Hinton agar, 37°C, 20 hours, read-out: MIC values against the standard strains
How it was run: as §1

[7] = test system: Staphylococcus aureus ATCC 10537; settings: ATCC10537, Muller-Hinton agar, 37°C, 20 hours, read-out: MIC values against the standard strains
How it was run: as §1

[8] = test system: Escherichia coli ATCC 10536; settings: ATCC10536, Muller-Hinton agar, 37°C, 20 hours, read-out: MIC values against the standard strains
How it was run: as §1

[9] = test system: Bacillus megaterium ATCC 9885; settings: Priestia megaterium, ATCC9885; Muller-Hinton agar; 37°C; 20 hours; read-out: MIC values against the standard strains
How it was run: as §1

[10] = test system: Proteus vulgaris ATCC 6059; settings: ATCC6059, Muller-Hinton agar, 37°C, 20 hours, read-out: MIC values against the standard strains
How it was run: as §1

[11] = test system: Shigella sonnei ATCC 11060; settings: ATCC11060, Muller-Hinton agar, 37°C, 20 hours, read-out: MIC values against the standard strains
How it was run: as §1

[12] = test system: Shigella flexneri ATCC 11836; settings: ATCC11836, Muller-Hinton agar, 37°C, 20 hours, read-out: MIC values against the standard strains
How it was run: as §1

[13] = test system: Pseudomonas aeruginosa ATCC 25619; settings: ATCC25619, Muller-Hinton agar, 37°C, 20 hours, read-out: MIC values against the standard strains
How it was run: as §1

[14] = test system: Streptococcus faecalis ATCC 29212; settings: Enterococcus faecalis, ATCC29212; Muller-Hinton agar; 37°C; 20 hours; read-out: MIC values against the standard strains
How it was run: as §1

[15] = test system: Morganella morganii ATCC 8076h; settings: ATCC8076H, Muller-Hinton agar, 37°C, 20 hours, read-out: MIC values against the standard strains
How it was run: as §1

[16] = test system: Bacillus cereus ATCC 11778; settings: ATCC11778, Muller-Hinton agar, 37°C, 20 hours, read-out: MIC values against the standard strains
How it was run: as §1

[17] = test system: Staphylococcus epidermidis ATCC 12228; settings: ATCC12228, Muller-Hinton agar, 37°C, 20 hours, read-out: MIC values against the standard strains
How it was run: as §1

[18] = test system: Providencia rettgeri ATCC 9250; settings: ATCC9250, Muller-Hinton agar, 37°C, 20 hours, read-out: MIC values against the standard strains
How it was run: as §1

[19] = test system: Klebsiella pneumoniae ATCC 10031; settings: ATCC10031, Muller-Hinton agar, 37°C, 20 hours, read-out: MIC values against the standard strains
How it was run: as §1

[20] = test system: Salmonella typhimurium ATCC 14028; settings: Salmonella enterica; Muller-Hinton agar; 37°C; 20 hours; read-out: MIC values against the standard strains
How it was run: as §1

[21] = test system: Micrococcus luteus ATCC 9341; settings: ATCC9341, Muller-Hinton agar, 37°C, 20 hours, read-out: MIC values against the standard strains
How it was run: as §1

[22] = test system: Staphylococcus aureus ATCC 6538p; settings: ATCC6538P, Muller-Hinton agar, 37°C, 20 hours, read-out: MIC values against the standard strains
How it was run: as §1

[23] = test system: Enterobacter aerogenes ATCC 29751; settings: Klebsiella aerogenes, ATCC29751; Muller-Hinton agar; 37°C; 20 hours; read-out: MIC values against the standard strains
How it was run: as §1

[24] = test system: Enterobacter cloacae ATCC 27508; settings: ATCC27508, Muller-Hinton agar, 37°C, 20 hours, read-out: MIC values against the standard strains
How it was run: as §1

[25] = test system: Pseudomonas aeruginosa ATCC 10145; settings: ATCC10145, Muller-Hinton agar, 37°C, 20 hours, read-out: MIC values against the standard strains
How it was run: as §1

Compound | MIC [1] [µg/mL] | MIC [2] [µg/mL] | MIC [3] [µg/mL] | MIC [4] [µg/mL] | MIC [5] [µg/mL] | MIC [6] [µg/mL] | MIC [7] [µg/mL] | MIC [8] [µg/mL] | MIC [9] [µg/mL] | MIC [10] [µg/mL] | MIC [11] [µg/mL] | MIC [12] [µg/mL] | MIC [13] [µg/mL] | MIC [14] [µg/mL] | MIC [15] [µg/mL] | MIC [16] [µg/mL] | MIC [17] [µg/mL] | MIC [18] [µg/mL] | MIC [19] [µg/mL] | MIC [20] [µg/mL] | further results
COc1cc(N)nc(SCC2=C(C(=O)[O-])N3C(=O)[C@@H](NC(=O)/C(=N\OC(C)(C)C(=O)O)c4csc(N)n4)[C@H]3SC2)[n+]1C [Example 17, 7-[(Z)-2-(2-aminothiazol-4-yl)-2-(carboxyprop-2-oxyimino)acetamido]-3-(4-amino-6-methoxy-1-methylpyrimidinium-2-yl)thiomethyl-3-cephem-4-carboxylate] | 2 (≈ 3.13 µM) | 2 (≈ 3.13 µM) | 0.13 (≈ 0.204 µM) | 0.063 (≈ 0.0986 µM) | 0.25 (≈ 0.391 µM) | 0.13 (≈ 0.204 µM) | 1 (≈ 1.57 µM) | 0.063 (≈ 0.0986 µM) | 0.25 (≈ 0.391 µM) | 0.13 (≈ 0.204 µM) | 0.13 (≈ 0.204 µM) | 0.031 (≈ 0.0485 µM) | 1 (≈ 1.57 µM) | > 128 | 0.016 (≈ 0.0251 µM) | 128 (≈ 200 µM) | 1 (≈ 1.57 µM) | 0.13 (≈ 0.204 µM) | 0.063 (≈ 0.0986 µM) | 0.25 (≈ 0.391 µM) | MIC [21]: 0.5 µg/mL (≈ 0.783 µM); MIC [22]: 4 µg/mL (≈ 6.26 µM); MIC [23]: 4 µg/mL (≈ 6.26 µM); MIC [24]: 0.016 µg/mL (≈ 0.0251 µM); MIC [25]: 4 µg/mL (≈ 6.26 µM)
CCO/N=C(\C(=O)N[C@@H]1C(=O)N2C(C(=O)[O-])=C(CSc3nc(N)cc(OC)[n+]3C)CS[C@H]12)c1csc(N)n1 [Example 18, 7-[(Z)-2-(2-aminothiazol-4-yl)-2-(ethoxyimino)acetamido]-3-(4-amino-6-methoxy-1-methylpyrimidinium-2-yl)thiomethyl-3-cephem-4-carboxylate] | 8 (≈ 13.8 µM) | 16 (≈ 27.6 µM) | 0.25 (≈ 0.431 µM) | 0.5 (≈ 0.861 µM) | 0.5 (≈ 0.861 µM) | 0.13 (≈ 0.224 µM) | 0.25 (≈ 0.431 µM) | 0.13 (≈ 0.224 µM) | 0.13 (≈ 0.224 µM) | 0.5 (≈ 0.861 µM) | 0.25 (≈ 0.431 µM) | 0.13 (≈ 0.224 µM) | 2 (≈ 3.44 µM) | 16 (≈ 27.6 µM) | ≤ 0.008 | 32 (≈ 55.1 µM) | 0.13 (≈ 0.224 µM) | ≤ 0.008 | ≤ 0.008 | 0.5 (≈ 0.861 µM) | MIC [21]: 0.016 µg/mL (≈ 0.0276 µM); MIC [22]: 0.5 µg/mL (≈ 0.861 µM); MIC [23]: 1 µg/mL (≈ 1.72 µM); MIC [24]: ≤ 0.008 µg/mL; MIC [25]: 16 µg/mL (≈ 27.6 µM)
